Reference: patent publication US9714231B2, “Pyrrolidine GPR40 modulators” (BRISTOL-MYERS SQUIBB COMPANY, priority 2012, dated 2017)
Structures can show the parent of a compound that is named as a salt.

Molecular target: human GPR40 (Homo sapiens, UniProt O14842)
Assay: FDSS-based intracellular calcium assay (Human GRP40 in vitro assay)
Type: cell-based
Design: 3xFLAG; expressed in transfected cells
Conditions: cells expressing GPR40, intracellular Ca2+ response, FDSS reader; read-out: hGPR40 EC50
Method: To conduct the fluorescent imaging plate reader (FLIPR)-based calcium flux assay to measure intracellular Ca^2+ response, cells expressing GPR40 are plated on 384 well plates (BD BIOCOAT® #356697) at a density of 20,000 cells/20 μL medium per well in phenol red and serum-free DMEM (GIBCO® #21063-029) and incubated overnight. Using BD kit #s 80500-310 or -301, the cells are incubated with 20 μL per well of Hank's buffered salt solution with 1.7 mM probenecid and Fluo-3 at 37° C. for 30 min. Compounds are dissolved in DMSO and diluted to desired concentrations with assay buffer and added to the cells as 3× solution (20 μL per well). Run fluorescence/luminescence reader FDSS (Hamamatsu) to read intracellular Ca^2+ response.

human GPR40, sequence (O14842 whole entry): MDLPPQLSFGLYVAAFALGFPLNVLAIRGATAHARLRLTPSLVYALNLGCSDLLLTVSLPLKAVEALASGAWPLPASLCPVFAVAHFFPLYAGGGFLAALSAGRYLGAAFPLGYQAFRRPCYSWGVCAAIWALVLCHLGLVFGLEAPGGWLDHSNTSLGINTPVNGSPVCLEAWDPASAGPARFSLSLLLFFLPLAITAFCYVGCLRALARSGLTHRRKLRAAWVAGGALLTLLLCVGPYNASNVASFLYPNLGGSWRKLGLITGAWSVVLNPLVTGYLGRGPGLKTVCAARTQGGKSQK

Compound | EC50 [nM]
COc1ccc(F)c(N2CCC(Oc3ccc(N4C[C@H](Oc5ccccc5)C[C@@H]4CC(=O)O)cc3)CC2)c1 [Example 6, 2-((2R,4R)-1-(4-((1-(2-Fluoro-5-methoxyphenyl)piperidin-4-yl)oxy)phenyl)-4-phenoxypyrrolidin-2-yl)acetic acid, HCl] | 190
COc1ccc(F)c(N2CCC(Oc3ccc(N4C[C@H](Cc5ccccc5)C[C@@H]4CC(=O)O)cc3)CC2)c1 [Example 7, 2-((2R,4R)-4-Benzyl-1-(4-((1-(2-fluoro-5-methoxyphenyl)piperidin-4-yl)oxy)phenyl)pyrrolidin-2-yl)acetic acid, HCl] | 320
COc1ccc(F)c(N2CCC(Oc3ccc(N4C[C@H](Cc5ccccc5)C[C@H]4CC(=O)O)cc3)CC2)c1 [Example 8, 2-((2S,4R)-4-Benzyl-1-(4-((1-(2-fluoro-5-methoxyphenyl)piperidin-4-yl)oxy)phenyl)pyrrolidin-2-yl)acetic acid, HCl] | 420
COc1ccc(F)c(N2CCC(N(C)c3ccc(N4C[C@H](C(F)(F)F)C[C@@H]4CC(=O)O)cc3)CC2)c1 [Example 9, 2-((2R,4R)-1-(4-((1-(2-Fluoro-5-methoxyphenyl)piperidin-4-yl)(methyl)amino)phenyl)-4-(trifluoromethyl)pyrrolidin-2-yl)acetic acid, TFA] | 290
COc1ccc(F)c(N2CC[C@H](COc3ccc(N4C[C@H](C(F)(F)F)C[C@@H]4CC(=O)O)cc3)C2)c1 [Example 10, 2-((2R,4R)-1-(4-(((S)-1-(2-Fluoro-5-methoxyphenyl)pyrrolidin-3-yl)methoxy)phenyl)-4-(trifluoromethyl)pyrrolidin-2-yl)acetic acid, HCl] | 940
COc1ccc(F)c(N2CC[C@@H](COc3ccc(N4C[C@H](C(F)(F)F)C[C@@H]4CC(=O)O)cc3)C2)c1 [Example 11, 2-((2R,4R)-1-(4-(((R)-1-(2-Fluoro-5-methoxyphenyl)pyrrolidin-3-yl)methoxy)phenyl)-4-(trifluoromethyl)pyrrolidin-2-yl)acetic acid, HCl] | 630
COc1ccc(F)c(N2CCC(Oc3ccc(N4C[C@H](OC)C[C@@H]4CC(=O)O)cc3F)CC2)c1 [Example 15, 2-((2R,4R)-1-(3-Fluoro-4-((1-(2-fluoro-5-methoxyphenyl)piperidin-4-yl)oxy)phenyl)-4-methoxypyrrolidin-2-yl)acetic acid, HCl] | 290
COc1cccc(N2CCC(Oc3ccc(N4C[C@H](C(F)(F)F)C[C@@H]4CC(=O)O)cc3)CC2)c1 [Example 19, 2-((2R,4R)-1-(4-((1-(3-Methoxyphenyl)piperidin-4-yl)oxy)phenyl)-4-(trifluoromethyl)pyrrolidin-2-yl)acetic acid, HCl] | 680
O=C(O)C[C@H]1C[C@@H](C(F)(F)F)CN1c1ccc(OC2CCN(c3ccccc3F)CC2)cc1 [Example 20, 2-((2R,4R)-1-(4-((1-(2-Fluorophenyl)piperidin-4-yl)oxy)phenyl)-4-(trifluoromethyl)pyrrolidin-2-yl)acetic acid, TFA] | 750
CCOc1cccc(N2CCC(Oc3ccc(N4C[C@H](C(F)(F)F)C[C@@H]4CC(=O)O)cc3)CC2)c1 [Example 21, 2-((2R,4R)-1-(4-((1-(3-Ethoxyphenyl)piperidin-4-yl)oxy)phenyl)-4-(trifluoromethyl)pyrrolidin-2-yl)acetic acid, HCl] | 850
O=C(O)C[C@H]1C[C@@H](C(F)(F)F)CN1c1ccc(OC2CCN(c3ccccc3)CC2)cc1 [Example 22, 2-((2R,4R)-1-(4-((l-Phenylpiperidin-4-yl)oxy)phenyl)-4-(trifluoromethyl)pyrrolidin-2-yl)acetic acid, HCl] | 1800
COc1cc(N2CCC(Oc3ccc(N4C[C@H](OC)C[C@@H]4CC(=O)O)cc3)CC2)c(F)cc1Cc1ccccc1 [Example 23, 2-((2R,4R)-1-(4-((1-(4-Benzyl-2-fluoro-5-methoxyphenyl)piperidin-4-yl)oxy)phenyl)-4-methoxypyrrolidin-2-yl)acetic acid, TFA] | 3200
O=C(O)C[C@H]1C[C@@H](C(F)(F)F)CN1c1ccc(OC2CCN(c3cccc(OC(F)(F)F)c3)CC2)cc1 [Example 24, 2-((2R,4R)-1-(4-((1-(3-(Trifluoromethoxy)phenyl)piperidin-4-yl)oxy)phenyl)-4-(trifluoromethyl)pyrrolidin-2-yl)acetic acid, HCl] | 4100
COc1ccc(F)c(N2CCC(Oc3ccc(N4C[C@H](F)C[C@@H]4CC(=O)O)cc3)C(C)C2)c1 (stereo partly drawn) [Example 25, 2-((2S,4R)-4-Fluoro-1-(4-((1-(2-fluoro-5-methoxyphenyl)-3-methylpiperidin-4-yl)oxy)phenyl)pyrrolidin-2-yl)acetic acid, TFA] | 77
CCc1cc(F)c(N2CCC(Oc3ccc(N4C[C@H](OC)C[C@@H]4CC(=O)O)cc3)CC2)cc1OC [Example 29, 2-((2R,4R)-1-(4-((1-(4-Ethyl-2-fluoro-5-methoxyphenyl)piperidin-4-yl)oxy)phenyl)-4-methoxypyrrolidin-2-yl)acetic acid, TFA] | 1100
COc1cc(N2CCC(Oc3ccc(N4C[C@H](OC)C[C@@H]4CC(=O)O)cc3)CC2)c(F)cc1CC(C)C [Example 30, 2-((2R,4R)-1-(4-((1-(2-Fluoro-4-isobutyl-5-methoxyphenyl)piperidin-4-yl)oxy)phenyl)-4-methoxypyrrolidin-2-yl)acetic acid, TFA] | 840
CCc1c(OC)ccc(F)c1N1CCC(Oc2ccc(N3C[C@H](OC)C[C@@H]3CC(=O)O)cc2)CC1 [Example 31, 2-((2R,4R)-1-(4-((1-(2-Ethyl-6-fluoro-3-methoxyphenyl)piperidin-4-yl)oxy)phenyl)-4-methoxypyrrolidin-2-yl)acetic acid, TFA] | 1100
COc1ccc(F)c(N2CCC(Oc3ccc(N4C[C@H](OC)C[C@@H]4CC(=O)O)cc3)CC2)c1Cc1ccccc1 [Example 32, 2-((2R,4R)-1-(4-((1-(2-Benzyl-6-fluoro-3-methoxyphenyl)piperidin-4-yl)oxy)phenyl)-4-methoxypyrrolidin-2-yl)acetic acid, TFA] | 1700
COc1ccc(F)c(N2CCC(N(C)c3ccc(N4C[C@H](OC)C[C@@H]4CC(=O)O)cn3)CC2)c1 [Example 37, 2-((2R,4R)-1-(6-((1-(2-Fluoro-5-methoxyphenyl)piperidin-4-yl)(methyl)amino)pyridin-3-yl)-4-methoxypyrrolidin-2-yl)acetic acid, HCl] | 3200
CCOc1ccc(F)c(N2CCC(Oc3ccc(N4C[C@H](c5ccccc5)C[C@@H]4CC(=O)O)cc3)C(C)C2)c1 (stereo partly drawn) [Example 41, 2-((2R,4S)-1-(4-(((3,4-trans)-1-(5-Ethoxy-2-fluorophenyl)-3-methylpiperidin-4-yl)oxy)phenyl)-4-phenylpyrrolidin-2-yl)acetic acid, HCl] | 230
CCOc1ccc(F)c(N2[C@H](C)C[C@H](Oc3ccc(N4C[C@H](C(F)(F)F)C[C@@H]4CC(=O)O)cc3)C[C@@H]2C)c1 [Example 42, 2-((2R,4R)-1-(4-(((2R,4R,6S)-1-(5-Ethoxy-2-fluorophenyl)-2,6-dimethylpiperidin-4-yl)oxy)phenyl)-4-(trifluoromethyl)pyrrolidin-2-yl)acetic acid, HCl] | 240
CCOc1ccc(F)c(N2CCC(Oc3ccc(N4C[C@H](n5cnnn5)C[C@@H]4CC(=O)O)cc3)CC2)c1 [Example 45, 2-((2R,4R)-1-(4-((1-(5-Ethoxy-2-fluorophenyl)piperidin-4-yl)oxy)phenyl)-4-(1H-tetrazol-1-yl)pyrrolidin-2-yl)acetic acid, HCl] | 1900
CCOc1ccc(F)c(N2CCC(Oc3ccc(N4C[C@@H](OCc5ccccc5)C[C@@H]4CC(=O)O)cc3)CC2)c1 [Example 46, 2-((2R,4S)-4-(Benzyloxy)-1-(4-((1-(5-ethoxy-2-fluorophenyl)piperidin-4-yl)oxy)phenyl)pyrrolidin-2-yl)acetic acid, HCl] | 650
COc1ccc(F)c(N2CCC(Oc3ccc(N4C[C@H](C(F)(F)F)C[C@@H]4CC(=O)O)cn3)CC2)c1 [Example 49, 2-((2R,4R)-1-(6-((1-(2-Fluoro-5-methoxyphenyl)piperidin-4-yl)oxy)pyridin-3-yl)-4-(trifluoromethyl)pyrrolidin-2-yl)acetic acid] | 280
COc1ccc(F)c(N2CCC(Oc3ccc(N4C[C@H](C(F)(F)F)C[C@H]4CC(=O)O)cn3)CC2)c1 [Example 50, 2-((2S,4R)-1-(6-((1-(2-Fluoro-5-methoxyphenyl)piperidin-4-yl)oxy)pyridin-3-yl)-4-(trifluoromethyl)pyrrolidin-2-yl)acetic acid] | 1500
COc1ccc(F)c(N2C[C@@H](C)[C@H](Oc3ccc(N4C[C@H](OC)C[C@@H]4CC(=O)O)cc3)[C@@H](C)C2)c1 [Example 55, 2-((2R,4R)-1-(4-(((3S,4R,5R)-1-(2-Fluoro-5-methoxyphenyl)-3,5-dimethylpiperidin-4-yl)oxy)phenyl)-4-methoxypyrrolidin-2-yl)acetic acid, HCl] | 980
COc1ccc(F)c(N2C[C@@H](C)[C@@H](Oc3ccc(N4C[C@H](OC)C[C@@H]4CC(=O)O)cc3)[C@@H](C)C2)c1 [Example 56, 2-((2R,4R)-1-(4-(((3S,4S,5R)-1-(2-Fluoro-5-methoxyphenyl)-3,5-dimethylpiperidin-4-yl)oxy)phenyl)-4-methoxypyrrolidin-2-yl)acetic acid, HCl] | 2500
COc1ccc(Br)c(N2CCC(Oc3ccc(N4C[C@H](OC)C[C@@H]4CC(=O)O)cc3)CC2)c1 [Example 58, 2-((2R,4R)-1-(4-(1-(2-Bromo-5-methoxyphenyl)piperidin-4-yloxy)phenyl)-4-methoxypyrrolidin-2-yl)acetic acid, TFA] | 140
